Laboratory results published in ChEMBL document CHEMBL4651402, “Screening of ~5500 FDA-approved drugs and clinical candidates for anti-SARS-CoV-2 activity” (2021).

System: SARS-CoV-2
Assay: microbe, parasite or virus in culture
Conditions: Severe acute respiratory syndrome coronavirus 2, Vero C1008, 48 h

Structure (SMILES) | IC50 [µM] | IC50 (read-out: pIC50 (converted)) [µM]
CC1(C)CN(C(=O)c2ccc(-c3cccc4nc(NC(=O)C5CC5)nn34)cc2)C1 [SOLCITINIB] | > 20 | > 20
NS(=O)(=O)c1ccc(N2CCN(CC[C@@H]3OCCc4ccccc43)CC2)cc1 [SONEPIPRAZOLE] | > 20 | > 20
CNC(=O)c1cc(Oc2ccc(NC(=O)Nc3ccc(Cl)c(C(F)(F)F)c3)cc2)ccn1 [SORAFENIB] | > 20 | > 20
COCCO[C@@H]1c2ccn3c(C)c(C)nc3c2N[C@H](c2ccccc2)[C@H]1O [SORAPRAZAN] | > 20 | > 20
OC[C@@H](O)[C@@H](O)[C@H](O)[C@@H](O)CO [SORBITOL] | > 20 | > 20
O=c1[nH]c(=O)n([C@@H]2O[C@H](CO)[C@@H](O)[C@@H]2O)cc1/C=C/Br [SORIVUDINE] | > 20 | > 20
CCOc1ccc(Cc2cc([C@@H]3O[C@H](SC)[C@@H](O)[C@H](O)[C@H]3O)ccc2Cl)cc1 [SOTAGLIFLOZIN] | > 20 | > 20
CC(C)NCC(O)c1ccc(NS(C)(=O)=O)cc1 (stereo not given) [SOTALOL] | > 20 | > 20
CC(C)NCC(O)c1ccc(O)c(NS(C)(=O)=O)c1 (stereo not given) [SOTERENOL] | > 20 | > 20
CN1CCN(c2nc(C3=C(c4c[nH]c5ccccc45)C(=O)NC3=O)c3ccccc3n2)CC1 [SOTRASTAURIN] | > 20 | > 20
CNC(=O)c1cc(Oc2ccc3nc(N[C@@H]4CCCC[C@H]4O)sc3c2)ccn1 [SOTULETINIB] | > 20 | > 20
C[C@@H]1CN(c2c(F)c(N)c3c(=O)c(C(=O)O)cn(C4CC4)c3c2F)C[C@H](C)N1 [SPARFLOXACIN] | > 20 | > 20
C=CC(=O)Nc1cccc(Nc2nc(Nc3ccc(OCCOC)cc3)ncc2F)c1 [SPEBRUTINIB] | > 20 | > 20
CN[C@@H]1[C@H](O)[C@H](NC)[C@H]2O[C@@]3(O)C(=O)C[C@@H](C)O[C@H]3O[C@@H]2[C@H]1O [SPECTINOMYCIN] | > 20 | > 20
CC(=O)c1ccc2c(c1)C(=O)C1(CC1)O2 [SPIZOFURONE] | > 20 | > 20
O=C(O)c1ccccc1Nc1cccc(OCc2ccc3ccccc3n2)c1 [SR-2640] | > 20 | > 20
O=C(Oc1ccc(Br)cc1)N1CCN2CCC1CC2 [SSR180711] | > 20 | > 20
C[C@]12CCC(=O)C[C@@H]1CC[C@@H]1[C@@H]2CC[C@]2(C)[C@@H](O)CC[C@@H]12 [STANOLONE] | > 20 | > 20
CCCCCCCCCCCCCCCCCC(=O)O [STEARIC ACID] | > 20 | > 20
CC(C)(C)C(O)/C=C/c1ccc2c(c1)OCO2 (stereo not given) [STIRIPENTOL] | > 20 | > 20
Cc1ccc2c(c1)[C@H]1CN(C)CC[C@H]1N2 [STOBADINE] | > 20 | > 20
CN[C@@H]1[C@H](O[C@H]2[C@H](O[C@H]3[C@H](O)[C@@H](O)[C@H](N=C(N)N)[C@@H](O)[C@@H]3N=C(N)N)O[C@@H](C)[C@]2(O)C=O)O[C@@H](CO)[C@H](O)[C@H]1O [STREPTOMYCIN] | > 20 | > 20
O=C1C[C@@H]2OCC=C3CN4CC[C@]56c7ccccc7N1[C@H]5[C@H]2[C@H]3C[C@H]46 [STRYCHNINE] | > 20 | > 20
NC(=O)OCC(O)c1ccccc1 (stereo not given) [STYRAMATE] | > 20 | > 20
O=C(O)CCC(=O)O [SUCCINIC ACID] | > 20 | > 20

Structure (SMILES) | IC50 [µM] | IC50 (read-out: pIC50 (converted)) [µM]
O=C(O)CCC(=O)Nc1ccc(S(=O)(=O)Nc2nccs2)cc1 [SUCCINYLSULFATHIAZOLE] | > 20 | > 20
OC[C@H]1O[C@@](CO)(O[C@H]2O[C@H](CO)[C@@H](O)[C@H](O)[C@H]2O)[C@@H](O)[C@@H]1O [SUCROSE] | > 20 | > 20
CN1C(C(=O)Nc2nccs2)=C(O)c2ccccc2S1(=O)=O [SUDOXICAM] | > 20 | > 20
CC1(C)[C@H](C(=O)O)N2C(=O)C[C@H]2S1(=O)=O [SULBACTAM] | > 20 | > 20
Clc1ccc(CSC(Cn2ccnc2)c2ccc(Cl)cc2Cl)cc1 (stereo not given) [SULCONAZOLE] | > 20 | > 20
Nc1ccc(S(=O)(=O)NC(=O)c2ccccc2)cc1 [SULFABENZAMIDE] | > 20 | > 20
NC(=O)NS(=O)(=O)c1ccc(N)cc1 [SULFACARBAMIDE] | > 20 | > 20
CC(=O)NS(=O)(=O)c1ccc(N)cc1 [SULFACETAMIDE] | > 20 | > 20
Nc1ccc(S(=O)(=O)Nc2ccc(Cl)nn2)cc1 [SULFACHLORPYRIDAZINE] | > 20 | > 20
CCn1ccc(NS(=O)(=O)c2ccc(N)cc2)nc1=O [SULFACYTINE] | > 20 | > 20
Nc1ccc(S(=O)(=O)Nc2ncccn2)cc1 [SULFADIAZINE] | > 20 | > 20
COc1cc(NS(=O)(=O)c2ccc(N)cc2)nc(OC)n1 [SULFADIMETHOXINE] | > 20 | > 20
COc1ncnc(NS(=O)(=O)c2ccc(N)cc2)c1OC [SULFADOXINE] | > 20 | > 20
N=C(N)NS(=O)(=O)c1ccc(N)cc1 [SULFAGUANIDINE] | > 20 | > 20
Cc1cc(C)nc(NS(=O)(=O)c2ccc(N)cc2)n1 [SULFAMETHAZINE] | > 20 | > 20
Cc1nnc(NS(=O)(=O)c2ccc(N)cc2)s1 [SULFAMETHIZOLE] | > 20 | > 20
Cc1cc(NS(=O)(=O)c2ccc(N)cc2)no1 [SULFAMETHOXAZOLE] | > 20 | > 20
COc1ccc(NS(=O)(=O)c2ccc(N)cc2)nn1 [SULFAMETHOXYPYRIDAZINE] | > 20 | > 20
COc1cc(NS(=O)(=O)c2ccc(N)cc2)ncn1 [SULFAMONOMETHOXINE] | > 20 | > 20
Nc1ccc(S(N)(=O)=O)cc1 [SULFANILAMIDE] | > 20 | > 20
Nc1ccc(S(=O)(=O)Nc2ccnn2-c2ccccc2)cc1 [SULFAPHENAZOLE] | > 20 | > 20
Nc1ccc(S(=O)(=O)Nc2ccccn2)cc1 [SULFAPYRIDINE] | > 20 | > 20
Nc1ccc(S(=O)(=O)Nc2cnc3ccccc3n2)cc1 [SULFAQUINOXALINE] | > 20 | > 20
O=C(O)c1cc(/N=N/c2ccc(S(=O)(=O)Nc3ccccn3)cc2)ccc1O [SULFASALAZINE] | > 20 | > 20
Nc1ccc(S(=O)(=O)Nc2nccs2)cc1 [SULFATHIAZOLE] | > 20 | > 20

Structure (SMILES) | IC50 [µM] | IC50 (read-out: pIC50 (converted)) [µM]
COc1ccc(CCC(C)NCC(O)c2ccc(O)c([S+](C)[O-])c2)cc1 (stereo not given) [SULFINALOL] | > 20 | > 20
O=C1C(CC[S+]([O-])c2ccccc2)C(=O)N(c2ccccc2)N1c1ccccc1 (stereo not given) [SULFINPYRAZONE] | > 20 | > 20
CC(=O)N(c1onc(C)c1C)S(=O)(=O)c1ccc(N)cc1 [SULFISOXAZOLE ACETYL] | > 20 | > 20
Cc1noc(NS(=O)(=O)c2ccc(N)cc2)c1C [SULFISOXAZOLE] | > 20 | > 20
CC(C)(C)NCC(O)c1ccc(O)c(CS(C)(=O)=O)c1 (stereo not given) [SULFONTEROL] | > 20 | > 20
COc1cc(O)c(C(=O)c2ccccc2)cc1S(=O)(=O)O [SULISOBENZONE] | > 20 | > 20
COc1cc([S+](C)[O-])ccc1-c1nc2cccnc2[nH]1 (stereo not given) [SULMAZOLE] | > 20 | > 20
O=C(O)COc1ccc(CCNS(=O)(=O)c2ccccc2)cc1 [SULOTROBAN] | > 20 | > 20
CCN1CCCC1CNC(=O)c1cc(S(N)(=O)=O)ccc1OC (stereo not given) [SULPIRIDE] | > 20 | > 20
CCN(CC)CCNC(=O)c1c(C)[nH]c(/C=C2\C(=O)Nc3ccc(F)cc32)c1C [SUNITINIB] | > 20 | > 20
CC(C(=O)O)c1ccc(C(=O)c2cccs2)cc1 (stereo not given) [SUPROFEN] | > 20 | > 20
CCN(CC)CCNC(=O)N(CCS(=O)(=O)c1ccccc1)C(C)C [SURICAINIDE] | > 20 | > 20
Cn1nc(-c2cccc(F)c2)n(C)c1=S [SURITOZOLE] | > 20 | > 20
OC1CCCc2nc3ccccc3c(NCc3ccccc3)c21 (stereo not given) [SURONACRINE] | > 20 | > 20
Cc1ccc(-n2nccn2)c(C(=O)N2CCN(c3nc4cc(Cl)ccc4o3)CC[C@H]2C)c1 [SUVOREXANT] | > 20 | > 20
CN1C(C)(C)CC(OC(=O)CCC(=O)OC2CC(C)(C)N(C)C(C)(C)C2)CC1(C)C [SUXEMERID] | > 20 | > 20
CCCCC1(COC(=O)CCC(=O)O)C(=O)N(c2ccccc2)N(c2ccccc2)C1=O [SUXIBUZONE] | > 20 | > 20
COc1cc(C(=O)O)cc(OC)c1O [SYRINGIC ACID] | > 20 | > 20
Nc1sc2c(c1C(=O)c1ccc(Cl)cc1)CCCC2 [T-62] | > 20 | > 20
OC1CN(CCCOCCc2ccc3sccc3c2)C1 [T-817] | > 20 | > 20
CC(=O)Nc1ccc(C(=O)Nc2ccccc2N)cc1 [TACEDINALINE] | > 20 | > 20
c1ccc2c(c1)CCc1cccc3c1C2CN1CCCCC31 (stereo not given) [TACLAMINE] | > 20 | > 20
Nc1c2c(nc3ccccc13)CCCC2 [TACRINE] | > 20 | > 20
COc1cc(C)c2c(Oc3cccc(C(F)(F)F)c3)c(OC)cc(NC(C)CCCN)c2n1 (stereo not given) [TAFENOQUINE] | > 20 | > 20
Cc1ccc(/C=C/C(=O)NCCCCN2CCN(C(c3ccccc3)c3ccccc3)CC2)cn1 [TAGORIZINE] | > 20 | > 20
